# Results: patent US9873705B2, “Vinylogous thioester compounds and methods of use” (THE TRUSTEES OF DARTMOUTH COLLEGE, priority 2015, dated 2018)
# “Also recorded” adds a separate entry of the source.
# Experiments:
# U251-MG = assay: Glioblastoma cell growth, Alamar Blue, 3 or 7 days; assay type: cell-based, human; settings: 3.9×10^-8 M to 2×10^-5 M
# Method: (§1) 1000 cells in logarithmic phase were seeded per well (96 well plates) on day zero. The cells were treated for either 3 (red) or 7 (blue) days at a concentration range between 3.9×10^-8 M and 2×10^-5 M. Growth was assayed by the Alamar Blue method.
# U-87-MG = assay: Glioblastoma cell growth, Alamar Blue, 3 or 7 days; assay type: cell-based, human; settings: 3.9×10^-8 M to 2×10^-5 M
# Method: as §1
# [1] = tested on: BNIP3L/Nix in NF1+/+ and NF1−/− IMEC CRISPR cells; assay: BNIP3L/Nix immunofluorescence; assay type: cell-based; settings: 1 μM, 24 h, NF1−/− vs NF1+/+ IMEC CRISPR cells, vs DMSO
# Excerpt: Mitochondria can also be removed via non-selective autophagy (21). To distinguish between inhibition of mitophagy and not non-selective autophagy, expression and localization of one mitophagy-specific receptors involved in […] mitophagy, BNIP3L/Nix, was examined via immunofluorescence (25) (FIG. 10). BNIP3 and its homologue BNIP3L/NIX are involved in hypoxia-induced mitophagy and are transcriptionally regulated through HIF in human cancers (27). BNIP3-mediated mitophagy is also reported to occur following perinuclear clustering and fragmentation of the mitochondria (28,29). Under hypoxic conditions, both BNIP3 and FUNDC1 are reported to localize to the outer mitochondrial membrane (30). Therefore, if mitophagy is inhibited with Y102 under hypoxic conditions, BNIP3, NIX/BNIP3L, and/or FUNDC1 should accumulate if Y102 inhibits […] mitophagy following receptor localization.
# CRISPR technology was used to introduce mutated NF1 into mammalian IMEC cells in order to generate an isogenic system for the testing of compounds that mimics the yeast isogenic system used in the original screens.
# The data for FIG. 10 was obtained as follows: NF1+/+ and NF1−/− IMEC CRISPR cells were plated on poly-L-lysine (Sigma) coated coverslips at a concentration of 50,000 cells/well in a 24-well plate and allowed to adhere overnight. […]
# U87-MG cells = assay: U87-MG cell viability, alamarBlue, washout; assay type: cell-based, human; settings: 2 hour treatment then washout compared to 72 hour treatment; 0 to 20 μM
# Method: Growth inhibition assays as described above were performed on ira2Δ yeast cells and NF1-deficient glioblastoma cells. Log-phase yeast were grown at 30° C. starting at an OD600 of 0.05 in 96-well plates with Y102 at concentrations ranging from 0 to 100 μM. Following 18 h treatment, OD600 was measured using a THERMOmax (Molecular Devices) microplate reader and SOFTmax Pro 4.3 LS software. Results were plotted as a percentage compared to DMSO control using GraphPad Prism software. Graph represents an average of three experiments with four technical replicates per experiment (FIG. 2A). In a similar experiment U87-MG cells were plated at a concentration of 5,000 cells/well into 96-well plates and allowed to adhere overnight. The following day, cells were treated with Y102 at concentrations ranging from 0 to 20 μM for up to 72 h. For treatments less than 72 h, treatment media was removed at the indicated time points and replaced with normal growth medium. Three hours prior to collection, alamarBlue (Thermo Scientific) was added to a final concentration of 5% v/v. AlamarBlue fluorescence was determined with a Spectramax M2 (Molecular Devices) plate reader at an excitation of 544 nm and an emission of 590 nm using SoftMax Pro 3 software. Results were plotted as a percentage compared to DMSO control using GraphPad Prism software (FIG. 2B). […]
structure (smiles),measurement,setting,value
Cn1cnnc1S/C=C/C(=O)c1ccc(F)cc1 [Y102],sensitivity of U251-MG (growth),U251-MG,sensitive
same,sensitivity of U-87-MG (growth),U-87-MG,sensitive
same,BNIP3L/Nix accumulation (mitophagy receptor),[1],perinuclear clustering of the mitophagy receptor BNIP3L/NIX was observed; also recorded: accumulated with Y102 treatment moreso in NF1−/− cells than in NF1+/+ cells
same,reversibility of effect on U87-MG cell viability,U87-MG cells,irreversible
